{"source": "paper PMC11758220", "about": "“Identification of a Privileged Scaffold for Inhibition of Sterol Transport Proteins through the Synthesis and Ring Distortion of Diverse, Pseudo-Natural Products” (ACS Central Science, 2025)", "assay_type_in_all_cases": "binding", "details_in_all_cases": "single dose, Dose = 10 µM", "key": {"[1]": {"biological_target": "T1, STARD3 (Homo sapiens, UniProt Q14849)", "T1 construct": "STARD3(216-444); made in house; host or cells: E. coli BL21(DE3)", "T1 sequence (Q14849 216-444)": "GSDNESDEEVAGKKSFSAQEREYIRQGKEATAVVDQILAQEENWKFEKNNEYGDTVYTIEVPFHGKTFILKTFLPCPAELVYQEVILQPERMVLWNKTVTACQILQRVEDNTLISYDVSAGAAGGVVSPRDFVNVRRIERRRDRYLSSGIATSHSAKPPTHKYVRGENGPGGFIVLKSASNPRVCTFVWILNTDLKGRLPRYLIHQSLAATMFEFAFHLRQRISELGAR", "experiment": "Differential scanning fluorimetry (DSF), STARD3", "text": "(§1) Protein expression constructs\n(§2) Human ASTER domains of Aster-A(359-547), -B(364-552) and -C(318-504) were subcloned into a pGEX-6p-2rbs vector, thus introducing the cloning artifact ‘GPLGS’.3 The pGEX-6P-1-GST-OSBP(377- […]\n(§3) a gift from James H. Hurley (University of California).4 The pHIS_2His6_Thrombin_STARD4(2-205;C75S) plasmid was a gift from Young Jun Im (Chonnam National University).5 STARD5A was a gift from Nicola Burgess-Brown (Addgene plasmid #42392; http://n2t.net/addgene:42392; […]\n(§4) Protein expression and purification […]\n(§5) vectors including an N-terminal PreScission-cleavable glutathione S-transferase (GST)-tag were expressed in Escherichia coli (E. coli) OverExpress C41 in Terrific Broth (TB) medium for 16 h at 18 °C after the induction with 0.1 mM isopropyl β-D-1-thiogalactopyranoside (IPTG). Cells were harvested at 3500 × g for 15 minutes and lysed by sonication in buffer containing 50 mM HEPES pH 7.5, 300 mM NaCl, 10 %v/v glycerol, 5 mM dithiothreitol (DTT), 0.1 %v/v Triton X-100 and protease inhibitor mix HP plus (Serva). The lysate was purified by affinity chromatography on a GSTrap FF column (Cytiva) using an ÄKTA Start (Cytiva) in buffer containing 50 mM HEPES pH 7.5, 300 mM NaCl, 10 %v/v glycerol, 5 mM DTT and 0.01 %v/v Triton X-100. The GST-tag was cleaved overnight on the column at 4 °C. The Aster sterol binding domains were further purified by size-exclusion chromatography (SEC) on a HiLoad 16/600 Superdex 75 pg (Cytiva) in buffer containing 20 mM HEPES pH 7.5, 300 mM NaCl, 10 %v/v […]\n(§6) STARD5(6-213) harboring an N-terminal His6-Tag were expressed in E. coli BL21(DE3) in Luria-Bertani Broth (LB) medium for approximately 16 h at 18 °C after induction with 0.15 mM IPTG. Cells were harvested at 3500 × g for 15 minutes and lysed by sonication in buffer containing 50 mM HEPES pH 7.5, 150 mM NaCl, 5 %v/v glycerol, 5 mM DTT, 0.1 %v/v Triton X -100 and ethylenediaminetetraacetic acid (EDTA)-free protease inhibitor cocktail (Sigma-Aldrich). The cleared lysate was purified by affinity chromatography on a Ni-NTA Superflow Cartridge (Qiagen) using an ÄKTA Start (Cytiva) in buffer containing 50 mM HEPES pH 7.5, 150 mM NaCl, 5 %v/v glycerol, 5 mM DTT. START domains were eluted by using elution buffer containing 50 mM HEPES pH 7.5, 150 mM NaCl, 5 %v/v glycerol, 5 mM DTT and 500 mM imidazole. Proteins were further purified by SEC on a HiLoad 16/600 Superdex 75 pg (Cytiva) in buffer containing 20 mM HEPES pH 7.5, 150 mM NaCl, 5 %v/v glycerol and 2 mM DTT.\n(§7) The ORP domain of human OSBP(377-807) in the pGEX-6p-1 vector with an N-terminal PreScission-cleavable GST-tag was expressed in E. coli OverExpress C41 in LB medium for 16 h at 18 °C after induction with 0.1 mM IPTG. Cells were harvested at 3500 × g for 15 minutes and lysed by sonication in buffer containing 20 mM HEPES pH 7.5, 300 mM NaCl, 10 %v/v glycerol, 5 mM DTT, 0.1 %v/v Triton X-100 and EDTA-free protease inhibitor cocktail (Sigma-Aldrich). The cleared lysate was purified by affinity chromatography on a GSTrap HF column (Cytiva) using an ÄKTA Start (Cytiva) in buffer containing 20 mM HEPES pH 7.5, 300 mM NaCl, 10 %v/v glycerol, 5 mM DTT. OSBP(377 -807) was eluted by using elution buffer containing 20 mM HEPES pH 7.5, 300 mM NaCl, 10 %v/v glycerol, 5 mM DTT and 10 mM reduced glutathione. Proteins were further purified by SEC on a HiLoad 16/600 Superdex 75 pg (Cytiva) using an ÄKTA Explorer (Cytiva) in buffer containing 20 mM HEPES pH 7.5, 150 mM NaCl, 10 %v/v glycerol and 2 mM DTT.\n(§8) The ORP domains of human ORP1(534-950) in pET24b(+) and ORP2(49-480) in the pET24b(+) vector including an N-terminal His6-Tag were expressed in E. coli BL21(DE3) in TB medium for approximately 16 h at 18 °C after induction with 0.1 mM IPTG. Cells were collected at 3500 × g for 15 minutes and lysed by sonification in buffer containing 10 mM Tris-HCl pH 8, 300 mM NaCl, 5 % glycerol, 2 mM DTT, 0.1 % Triton X-100 and EDTA-free protease inhibitor cocktail (Sigma-Aldrich). The cleared […]"}, "[2]": {"biological_target": "T2, STARD4 (Homo sapiens, UniProt Q96DR4, C75S)", "T2 construct": "STARD4(2-205; C75S); made in house; host or cells: E. coli BL21(DE3)", "T2 sequence (Q96DR4 2-205 C75S)": "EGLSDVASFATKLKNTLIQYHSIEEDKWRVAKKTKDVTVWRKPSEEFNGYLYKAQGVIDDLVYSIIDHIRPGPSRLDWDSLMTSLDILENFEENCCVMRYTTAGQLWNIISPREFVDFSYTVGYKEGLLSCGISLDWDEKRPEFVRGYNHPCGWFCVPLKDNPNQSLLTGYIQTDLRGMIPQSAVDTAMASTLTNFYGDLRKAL", "experiment": "Differential scanning fluorimetry (DSF), STARD4", "text": "as §1, §2, §3, §4, §5, §6, §7, §8"}, "[3]": {"biological_target": "T3, STARD5 (Homo sapiens, UniProt Q9NSY2)", "T3 construct": "STARD5(6-213); host or cells: E. coli BL21(DE3)", "T3 sequence (Q9NSY2 6-213)": "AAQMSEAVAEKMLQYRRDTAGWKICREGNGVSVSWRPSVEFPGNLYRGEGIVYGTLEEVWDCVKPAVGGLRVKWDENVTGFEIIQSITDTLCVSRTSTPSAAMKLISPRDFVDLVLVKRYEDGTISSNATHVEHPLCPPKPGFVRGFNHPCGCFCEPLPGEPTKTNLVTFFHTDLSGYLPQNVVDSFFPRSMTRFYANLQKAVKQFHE", "experiment": "Differential scanning fluorimetry (DSF), STARD5", "text": "as §1, §2, §3, §4, §5, §6, §7, §8"}}}
{"smiles": "Cc1ccc2c(c1)C(=O)[C@]1(CC[C@@H]3C[C@H](O)CC[C@@]31C)N2", "note": "[Compound 13]", "values": [{"measurement": "ΔTm at 10 µM", "setting": "[1]", "value": -0.0638, "unit": "°C"}, {"measurement": "ΔTm at 10 µM", "setting": "[2]", "value": 1.1, "unit": "°C"}, {"measurement": "ΔTm at 10 µM", "setting": "[3]", "value": 0.143, "unit": "°C"}]}
